From paper PMC6522914, “Benzonate derivatives of acetophenone as potent α-glucosidase inhibitors: synthesis, structure–activity relationship and mechanism” (Journal of Enzyme Inhibition and Medicinal Chemistry, 2019)
“Also recorded” adds a separate entry of the source. Read-outs that look alike come from different tables or passages of the source.

Assays:
[1] = target: α-glucosidase (EC 3.2.1.20) (Saccharomyces cerevisiae, UniProt P53341); assay: α-Glucosidase inhibitory assay (pNPG substrate); assay type: biochemical; conditions: in vitro
Description: The α-glucosidase inhibitory assay was performed according to a slightly modified method previously reported[21]^,[22]. In brief, a series of reaction solutions, including a fixed amount of α-glucosidase (10 unit/mL 3.75 µL), different concentrations of inhibitors (the tested compounds or positive controls, 37.5 µL), and sodium phosphate buffer (PBS, […], 0.1 M, pH 6.8), were incubated at 37 °C for 10 min. To initiate the reaction, 112.5 µL of pNPG (6.0 mM, as a substrate) was added into the pre-incubated mixtures, and the final volume of reaction system was kept at 750 µL. The p-nitrophenol released from pNPG substrate was used as the target substance to quantify the enzymatic activity. […] The negative control was prepared by adding PBS instead of α-glucosidase, the blank was prepared by adding solvent instead of tested compounds, and the inhibition rate was calculated as the following Equation (1). (1) (ODcontrol−ODcontrol blank)−(ODtest−ODtest blank)/ODcontrol−ODcontrol blank×100%

[2] = Sucrose-loading test (postprandial blood glucose); assay type: in vivo, Kunming mice; conditions: mice, 20 mg/kg by gavage, sucrose 2.5 g/kg, 0–120 min
Description: The carbohydrate loading test was conducted according as Kato et al.[23] and Han et al.[24] reported, with slight modifications. Fifteen male Kunming mice (35–40 g) after an overnight fast were randomly divided into three groups (five mice per group). […] A blank control group was loaded with 0.5% CMC–Na solution only. The blood samples were collected from the mice’s tail vein at 0, 15, 30, 60, 90, and 120 min, and the blood glucose levels were determined by a glucose detection kit.

intestinal α-glucosidase = assay: Everted intestinal sleeve assay; set-up: species or system Sprague–Dawley rats
Description: ^1H NMR and ^13 C NMR spectra were carried out using a 500 MHz Avance spectrometer (Bruker, USA) or a Varian Mercury 400 MHz spectrometer. Chemical shifts were measured relative to the residual solvent peaks of CDCl3 with tetramethylsilane as the internal standard. High-resolution mass spectra were recorded on an AB SCIEX Triple TOF 5600+ spectrometer. The in vitro inhibitory activity and kinetic assay of α-glucosidase were measured by a microplate reader (Synergy HTX, BioTek Instruments Inc., Winooski, VT, USA). Fluorescence spectra were conducted on a spectrofluorometer (LS55, Perkin Elmer Inc., Waltham, MA, USA). […] Titration microcalorimetry measurement conducted on a Nano-ITC SV instrument (TA Instruments Ltd., UK). The surgeries were performed under anesthesia and all efforts were made to minimise animal suffering. The blood glucose levels were determined via a glucose detection kit (Robio Co., Ltd., Shanghai, China). […] The concentrations of glucose in the soaking solution and intestinal sleeve were detected using S-10 biosensor analyzer (Sieman Technology Co., Ltd., Shenzhen, China). All reaction progress was monitored by thin-layer chromatography (TLC) on silica gel GF254 (Qingdao Haiyang Chemical Co., Ltd., Qingdao, China) with ultraviolet detection. Reagents were purchased from commercial sources (Bodi Chemical Co., Ltd., Tianjin, China; Aladdin Industrial Co., Ltd., Shanghai, China), and used as received. α-Glucosidase (EC 3.2.1.20, Sigma-Aldrich Chemical, St. Louis, MO, USA); 4-nitrophenyl-α-D-glucopyranoside (pNPG) (99%, Macklin Biochemical Co., Ltd, Shanghai, China).
After a 12-h fasting, the jejunum of 200–220 g Sprague-Dawley […] was obtained. Then the proximal jejunum was flushed with pre-cold isotonic saline (4 °C) and cut into 3 cm-long segments. Each segment was weighed separately, everted and both ends were secured by tying knots. Then the sleeves were incubated (90 min at 37 °C) in mammalian Ringer’s solution containing sucrose (1.5 mM) and an appropriate concentration of the inhibitor (0.17 mM). Following the incubation, the concentrations of glucose in the soaking solution and intestinal sleeves were tested with biosensor analyzer (S-10). The total glucose concentration was calculated as glucose per gram of gut weight (mmol/g).

α-glucosidase [3] = target: T1, α-glucosidase (Saccharomyces cerevisiae, UniProt P53341); assay: Kinetic analysis of inhibition type (Lineweaver–Burk / Michaelis–Menten); assay type: biochemical
Description: To further explore the inhibitory characteristic of this type of compounds, kinetic studies of the selected compound 7u were performed[3]^,[13]^,[26]. Different final concentrations (0.5, 1, 2, 4, and 8 µM) of the inhibitor 7u around the IC50 values were chosen. The concentration of α-glucosidase was kept at 1 µM, and the pNPG concentrations varied from 2.0 to 12.0 mM in the absence and presence of compound 7u. The type of inhibition was analyzed on the basis of the Michaelis–Menten constant (Km) and maximal rate (Vmax) of the enzyme. The parameters were determined via Lineweaver–Burk plots, which was obtained by plotting enzyme reaction velocity (ν) and substrate (pNPG), namely, 1/ν versus 1/[pNPG]. The secondary plot slope against [7u] was also determined. The protein concentration was determined according to the Bradford method[27] using bovine serum albumin as the standard.

α-glucosidase [4] = target: T1, α-glucosidase; assay: Fluorescence quenching and van't Hoff thermodynamics; assay type: binding; conditions: for ΔG^o: van't Hoff
Description: The steady state fluorescence emission spectra, were recorded between 300 and 500 nm at the excitation wavelength of 280 nm at three different temperatures (25, 31 and 37 °C), and both the excitation and emission slits were set at 2.5 nm. Compound 7u at different concentrations (from 0 to 6 µM) were added into the 3.0 ml solution containing a fixed amount of α-glucosidase (2μM). All of the mixtures were held for 5 min to equilibrate before measurements. The fluorescence spectra of buffer were subtracted as the background fluorescence.
(§1) The synchronous fluorescence spectra of α-glucosidase in the absence and presence of compound 7u were scanned by setting the excitation and emission wavelength intervals (Δλ) at 15 and 60 nm, respectively. To eradicate the probability of re-absorption and inner filter effects in UV absorption, all of the fluorescence data were corrected for absorption of exciting light and emitted light, based on the Equation S1[3]^,[13].

α-glucosidase [5] = target: T1, α-glucosidase; assay: Isothermal titration calorimetry; assay type: binding; conditions: ITC, 25 °C
Description: Titration of the compound 7u into the α-glucosidase was performed at 25 °C. All the solutions were prepared in 0.1 M PBS (pH 6.8). The α-glucosidase solution (2.5μM) was placed in the 1.3 ml sample cell of the calorimeter, and the injection syringe was loaded with the solution of 7u (30μM, in 0.05% DMSO). The solution of compound 7u was titrated into the sample cell at 25 °C as a progression of 25 injections of 10μL. The time delay between each two injections was 300 s. To ensure comprehensive mixing, all the sample was stirred at a speed of 300 rpm during experiment. The control experiments included the titration of the compound 7u solution into 0.1 M PBS (pH 6.8)[33–35].

α-glucosidase [6] = target: T1, α-glucosidase; assay: Synchronous fluorescence spectra; assay type: binding; conditions: 7u 0–6 µM, 25 °C
Description: as §1

α-glucosidase [7] = target: T1, α-glucosidase; assay: Circular dichroism measurement; assay type: binding; conditions: 7u 0–4 µM, α-glucosidase 2 µM, 25 °C
Description: The CD measurements of α-glucosidase in the presence of compound 7u were conducted in far–UV region (190–250 nm), under nitrogen environment using a 1.0 mm path length cuvette. The concentration of α-glucosidase was maintained constant (2 µM) while the 7u concentration was varied as 0, 1, 2, and 4 µM. All observed CD spectra were recorded in 0.1 M PBS (pH 6.8) at 25 °C[13]^,[31].

α-glucosidase [8] = target: T1, α-glucosidase; conditions: cited from earlier work

T1 sequence (P53341 whole entry): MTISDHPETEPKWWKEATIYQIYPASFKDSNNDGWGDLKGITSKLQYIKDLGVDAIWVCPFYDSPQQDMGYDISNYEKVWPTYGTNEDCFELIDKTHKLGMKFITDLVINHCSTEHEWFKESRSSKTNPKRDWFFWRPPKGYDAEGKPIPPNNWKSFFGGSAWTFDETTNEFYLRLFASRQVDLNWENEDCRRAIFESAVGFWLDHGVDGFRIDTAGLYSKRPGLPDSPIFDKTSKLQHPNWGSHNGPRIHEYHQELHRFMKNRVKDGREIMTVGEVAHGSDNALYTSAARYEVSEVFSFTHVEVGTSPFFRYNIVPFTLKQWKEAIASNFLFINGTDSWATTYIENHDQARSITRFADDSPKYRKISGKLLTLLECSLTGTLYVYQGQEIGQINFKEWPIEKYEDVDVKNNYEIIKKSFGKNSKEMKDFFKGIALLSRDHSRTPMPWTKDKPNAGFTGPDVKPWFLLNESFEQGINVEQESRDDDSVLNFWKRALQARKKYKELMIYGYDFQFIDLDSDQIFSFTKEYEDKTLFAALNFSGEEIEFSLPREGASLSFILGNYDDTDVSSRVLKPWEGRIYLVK
Chain of α-glucosidase (EC 3.2.1.20) (P53341 whole entry): as above

CC(=O)c1cc(Br)c(OC(=O)CCCCBr)c(Br)c1O [7h]
α-glucosidase inhibitory activity (in words) [1]: lost the activity

CC(=O)c1cc(Br)c(OC(=O)c2ccccc2[N+](=O)[O-])c(Br)c1O [7u]
effect on postprandial blood glucose levels ([2]; 20 mg/kg): significantly attenuated postprandial blood glucose in mice; also recorded: obvious repressive effect on blood glucose concentrations at peaked 15 min
inhibitory activity on intestinal α-glucosidase compared with acarbose (intestinal α-glucosidase; 0.17 mM): better than that of acarbose
glucose concentration in the solution outside the intestinal sleeves (intestinal α-glucosidase; 0.17 mM inhibitor, sucrose 1.5 mM): decreased the glucose concentrations in the solution present outside the intestinal sleeves
total concentration of glucose (intestinal α-glucosidase; 0.17 mM inhibitor, sucrose 1.5 mM, 5–90 min, versus blank): much lower than that of the blank
glucose concentration in the intestinal sleeves (intestinal α-glucosidase; 0.17 mM inhibitor, sucrose 1.5 mM, versus blank): lower than that of blank
Vmax (α-glucosidase [3]; 7u 1 µM): 1.39 ± 0.02 µM/min
Vmax (α-glucosidase [3]; 7u 2 µM): 1.24 ± 0.01 µM/min
Vmax (α-glucosidase [3]; 7u 4 µM): 1.04 ± 0.01 µM/min
Vmax (α-glucosidase [3]; 7u 8 µM): 0.84 ± 0.02 µM/min
type of inhibition (α-glucosidase [3]; Lineweaver–Burk plot): mixed-type inhibition
KSV (quenching constant) (α-glucosidase [4]; 25 °C): 5.00 ± 0.04 × 10^4 L·mol^−1
n (number of binding sites) (α-glucosidase [4]; 25 °C): 1.23
ΔG^o (α-glucosidase [4]; 25 °C): -7.698 ± 0.014 kcal/mol
KSV (quenching constant) (α-glucosidase [4]; 31 °C): 4.74 ± 0.03 × 10^4 L·mol^−1
n (number of binding sites) (α-glucosidase [4]; 31 °C): 1.19
ΔG^o (α-glucosidase [4]; 31 °C): -7.488 ± 0.0072 kcal/mol
KSV (quenching constant) (α-glucosidase [4]; 37 °C): 4.31 ± 0.02 × 10^4 L·mol^−1
n (number of binding sites) (α-glucosidase [4]; 37 °C): 1.15
ΔG^o (α-glucosidase [4]; 37 °C): -7.28 ± 0.0048 kcal/mol
quenching mechanism (α-glucosidase [4]; KSV versus temperature): static quenching mechanism
Kq (α-glucosidase [4]; fluorescence quenching): ~10^12 L·mol^−1·s^−1
ΔG (α-glucosidase [5]): –39.04 kJ·mol^−1
ΔH (α-glucosidase [5]): -23.901 kcal/mol
ΔS (α-glucosidase [5]): –204.50 J·mol^−1·K^−1
ΔG (α-glucosidase [5]; listed as 7 u): -9.331 kcal/mol
ΔS (α-glucosidase [5]; listed as 7 u): −204.50 J·mol^−1·K^−1
shift of maximum emission wavelength of Tyr residues (α-glucosidase [6]; Δλ = 15 nm): No evident shift
shift of maximum emission wavelength of Trp residues (α-glucosidase [6]; Δλ = 60 nm): noticeable red shift (from 277.5 to 286.5 nm)
CD negative bands at 209 and 220 nm (α-glucosidase [7]): both intensity of the negative bands decreased

C[C@H]1O[C@H](O[C@H]2[C@H](O)[C@@H](O)[C@@H](O[C@H]3[C@H](O)[C@@H](O)C(O)O[C@@H]3CO)O[C@@H]2CO)[C@H](O)[C@@H](O)[C@@H]1N[C@H]1C=C(CO)[C@@H](O)[C@H](O)[C@H]1O (stereo partly shown) [Acarbose, acarbose, reference compound]
effect on postprandial blood glucose levels [2]: at lower level than the model group

CC(C)=CCC/C(C)=C/Cc1c(O)cc(O)c(C(=O)/C=C/c2ccc(O)cc2)c1O [compound 1, 3′-geranylchalconaringenin]
inhibition activity against α-glucosidase compared with acarbose (α-glucosidase [8]; ref Sun et al. 12): superior inhibition activity against α-glucosidase than acarbose

O=c1cc(-c2ccc(O)cc2)oc2cc(O)cc(O)c12 [compound 2, apigenin]
inhibition activity against α-glucosidase compared with acarbose (α-glucosidase [8]; ref Zeng et al. 13): superior inhibition activity against α-glucosidase than acarbose

CC(=O)c1cc(C)c(O)cc1O [compound 3, 2,4-dihydroxy-5-methylacetophenone]
α-glucosidase inhibitory activity (in words) [1]: considerable inhibitory activity against α-glucosidase in prescreen
